Test results published in ChEMBL document CHEMBL1137427, “Efforts toward oral bioavailability in factor VIIa inhibitors” (Bioorg Med Chem Lett, 2006).

Columns and labels:
[1] = molecular target: Coagulation factor VII/tissue factor (Homo sapiens) (UniProt P08709+P13726); conditions: Plasma
Description: Anticoagulant potency in human plasma as measured by prothrombin time

Coagulation factor VII = molecular target: T1, Coagulation factor VII (Homo sapiens, UniProt P08709)
T1 sequence (P08709 whole entry): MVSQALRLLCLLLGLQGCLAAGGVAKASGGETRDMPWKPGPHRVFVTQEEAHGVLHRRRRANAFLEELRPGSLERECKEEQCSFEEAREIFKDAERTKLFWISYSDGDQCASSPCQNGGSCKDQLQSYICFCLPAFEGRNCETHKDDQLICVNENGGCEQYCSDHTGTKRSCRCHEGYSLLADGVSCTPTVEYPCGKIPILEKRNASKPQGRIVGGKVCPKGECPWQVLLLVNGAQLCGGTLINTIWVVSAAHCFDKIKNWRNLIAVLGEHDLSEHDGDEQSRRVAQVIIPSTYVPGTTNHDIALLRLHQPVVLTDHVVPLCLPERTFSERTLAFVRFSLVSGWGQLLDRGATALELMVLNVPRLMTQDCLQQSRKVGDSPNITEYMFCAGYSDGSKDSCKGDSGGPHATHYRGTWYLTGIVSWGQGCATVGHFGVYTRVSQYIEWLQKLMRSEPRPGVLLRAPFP

[2] = Mean residence time in iv dosed rat; format: ADME, organism-based; conditions: in vivo
[3] = Oral absorption in Sprague-Dawley rat at 10 mg/kg, po (AUC po, pv/AUC iv, jv); format: ADME, organism-based; parameters: dose 10 mg/kg, route oral; conditions: in vivo
[4] = Cmax in portal vein catheter of Sprague-Dawley rat at 10 mg/kg, po; format: ADME, organism-based; parameters: dose 10 mg/kg, route oral; conditions: in vivo
[5] = AUC in jugular vein catheter of Sprague-Dawley rat at 10 mg/kg, po; format: ADME, organism-based; parameters: dose 10 mg/kg, route oral; conditions: plasma
[6] = Tmax in portal vein catheter of Sprague-Dawley rat at 10 mg/kg, po; format: ADME, organism-based; parameters: dose 10 mg/kg, route oral; conditions: in vivo
[7] = Tmax in jugular vein catheter of Sprague-Dawley rat at 10 mg/kg, po; format: ADME, organism-based; parameters: dose 10 mg/kg, route oral; conditions: in vivo
[8] = Cmax in jugular vein catheter of Sprague-Dawley rat at 10 mg/kg, po; format: ADME, organism-based; parameters: dose 10 mg/kg, route oral; conditions: in vivo
[9] = Terminal half life in jugular vein catheter of Sprague-Dawley rat at 10 mg/kg, po; format: ADME, organism-based; parameters: dose 10 mg/kg, route oral; conditions: in vivo
[10] = AUC in portal vein catheter of Sprague-Dawley rat at 10 mg/kg, po; format: ADME, organism-based; parameters: dose 10 mg/kg, route oral; conditions: plasma
[11] = Oral bioavailability in Sprague-Dawley rat at 10 mg/kg, po (AUC po, jv/AUC iv, jv); format: ADME, organism-based; conditions: in vivo
[12] = Terminal half life in portal vein catheter of Sprague-Dawley rat at 10 mg/kg, po; format: ADME, organism-based; parameters: dose 10 mg/kg, route oral; conditions: in vivo
[13] = Mean residence time in iv dosed Sprague-Dawley rat; format: ADME, organism-based; conditions: in vivo

| Compound | 2PT [1] | Ki (Coagulation factor VII) | MRT [2] | further results |
| --- | --- | --- | --- | --- |
| Cc1cc(-c2nc3cc(C(=N)N)ccc3[nH]2)c(O)c(-c2cc(CNC(N)=O)ccc2O)c1 | 2 µM | 4 nM | < 20 min | – |
| CCCCCC(=O)NCc1ccc(O)c(-c2cccc(-c3cc4cc(C(=N)NO)ccc4[nH]3)c2O)c1 | – | – | – | Fa [3]: 9%; Cmax [4]: 1310 nM; AUC [5]: 2.4 µM·h; Tmax [6]: 31 min; Tmax [7]: 30 min; Cmax [8]: 1730 nM; half-life [9]: 54 min; AUC [10]: 2.03 µM·h; bioavailability [11]: 11%; half-life [12]: 49 min |
| N=C(N)c1ccc2[nH]c(-c3cc(CC(=O)O)cc(-c4cc(CNC(N)=O)ccc4O)c3O)nc2c1 | – | 14 nM | < 20 min | – |
| N=C(N)c1ccc2[nH]c(-c3cccc(-c4cc(CNC(N)=O)ccc4O)c3O)nc2c1 | 2.3 µM | 14 nM | 20 min | – |
| N=C(N)c1ccc2[nH]c(-c3cccc(-c4cc(CNC(=O)CO)ccc4O)c3O)cc2c1 | 0.9 µM | 3 nM | – | MRT [13]: 117 min |

Further lines, with some results ahead:

| 2PT [1] | Ki (Coagulation factor VII) | MRT [2] | Compound | further results |
| --- | --- | --- | --- | --- |
| 1.9 µM | 1 nM | > 60 min | N=C(N)c1ccc2[nH]c(-c3cc(C(CC(=O)O)C(=O)O)cc(-c4cc(CNC(N)=O)ccc4O)c3O)nc2c1 (centres undefined) | – |
| 1.4 µM | 13 nM | – | CCCCCC(=O)NCc1ccc(O)c(-c2cccc(-c3cc4cc(C(=N)N)ccc4[nH]3)c2O)c1 | Cmax [4]: 14 nM; AUC [5]: 0.0122 µM·h; Tmax [6]: 40 min; Tmax [7]: 30 min; Cmax [8]: 12 nM; half-life [9]: 37 min; AUC [10]: 0.0147 µM·h; MRT [13]: 89 min; half-life [12]: 26 min |
| 0.9 µM | 16 nM | – | CN(C)CCCC(=O)NCc1ccc(O)c(-c2cccc(-c3cc4cc(C(=N)N)ccc4[nH]3)c2O)c1 | MRT [13]: 50 min |
| 2 µM | 17 nM | – | N=C(N)c1ccc2[nH]c(-c3cccc(-c4cc(CNC(=O)N5CCOCC5)ccc4O)c3O)cc2c1 | – |
| 2.5 µM | 5 nM | < 20 min | N=C(N)c1ccc2[nH]c(-c3cc(F)cc(-c4cc(CNC(N)=O)ccc4O)c3O)nc2c1 | – |
| – | 120 nM | – | CC(=O)NCc1ccc(O)c(-c2cccc(-c3cc4cc(C(=N)N)ccc4[nH]3)c2O)c1 | – |
